Test results taken from the supplement of paper PMC11451515.

What was measured:
Conditions in all cases: 48 h
P12-Ichikawa [1] = assay: cell viability relative to DMSO control; higher = less cytotoxic
Outline: (§1)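 Cells were incubated for 48 h at 37°C before CellTiter-Glo One luminescence was read. The cells were NOMO1 or SEM (500 cells/well) or P12-Ichikawa (1000 cells/well) leukemia cells, adapted for at least four passages in each medium and seeded in 1536-well plates (5 μl). Dosing used library compounds in DMSO applied by pin over 11 threefold points, 47 μM to 0.79 nM. Viability is the per-plate percentage of DMSO wells, with cell-free wells as background.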

SEM cells [2] = assay: as above
Outline: as §1

NOMO1 [3] = assay: as above
Outline: as §1

P12-Ichikawa [4] = assay: AUC of viability dose-response curve (% viability x log10 dose units); higher = less sensitive
Outline: (§2)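 Leukemia cells adapted to each medium (500 or 1000 cells/well, 1536-well plates) were exposed to library compounds in DMSO for 48 h at 37°C at 11 threefold doses, 47 μM to 0.79 nM. Luminescence by CellTiter-Glo One was normalised per plate to DMSO and cell-free wells, then fitted with a four-parameter log-logistic curve on log10 dose. Curves above full viability were scaled and quality-control failures removed before area under the curve was integrated by trapezoidal rule.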

SEM cells [5] = assay: as above
Outline: as §2

NOMO1 [6] = assay: as above
Outline: as §2

C\C1=C\N([C@H]2C[C@H](N=[N+]=[N-])[C@@H](CO)O2)C(=O)NC1=O
cell viability [%]
Conditions | NOMO1 [3] | P12-Ichikawa [1] | SEM cells [2]
HPLM + 10% dialyzed FBS, 0.000781 µM | 94.1 | 101 | 65.4
HPLM + 10% dialyzed FBS, 0.00234 µM | 109 | 108 | 68.8
HPLM + 10% dialyzed FBS, 0.00702 µM | 99.4 | 107 | 82.4
HPLM + 10% dialyzed FBS, 0.0211 µM | 105 | 120 | 71
HPLM + 10% dialyzed FBS, 0.0632 µM | 111 | 111 | 80.8
HPLM + 10% dialyzed FBS, 0.19 µM | 120 | 111 | 93.1
HPLM + 10% dialyzed FBS, 0.569 µM | 109 | 111 | 95.4
HPLM + 10% dialyzed FBS, 1.71 µM | 61 | 120 | 86.5
HPLM + 10% dialyzed FBS, 5.12 µM | 29.7 | 115 | 81.6
HPLM + 10% dialyzed FBS, 15.4 µM | 19.8 | 23.2 | 84.3
HPLM + 10% dialyzed FBS, 46.1 µM | 25.7 | 15.1 | 79.3
RPMI 5 mM glucose + 10% FBS, 0.000781 µM | 88.2 | 99.8 | 82.5
RPMI 5 mM glucose + 10% FBS, 0.00234 µM | 109 | 120 | 85.6
RPMI 5 mM glucose + 10% FBS, 0.00702 µM | 105 | 122 | 88.9
RPMI 5 mM glucose + 10% FBS, 0.0211 µM | 106 | 111 | 89.3
RPMI 5 mM glucose + 10% FBS, 0.0632 µM | 96.7 | 116 | 84.8
RPMI 5 mM glucose + 10% FBS, 0.19 µM | 97.5 | 116 | 101
RPMI 5 mM glucose + 10% FBS, 0.569 µM | 106 | 121 | 88.4
RPMI 5 mM glucose + 10% FBS, 1.71 µM | 29.3 | 121 | 104
RPMI 5 mM glucose + 10% FBS, 5.12 µM | 15.1 | 119 | 92.2
RPMI 5 mM glucose + 10% FBS, 15.4 µM | 14.3 | 34.4 | 101
RPMI 5 mM glucose + 10% FBS, 46.1 µM | 10.2 | 25.3 | 82.2
RPMI 5 mM glucose + 10% dialyzed FBS, 0.000781 µM | 107 | 97.1 | 72.2
RPMI 5 mM glucose + 10% dialyzed FBS, 0.00234 µM | 110 | 109 | 83.9
RPMI 5 mM glucose + 10% dialyzed FBS, 0.00702 µM | 109 | 112 | 96
RPMI 5 mM glucose + 10% dialyzed FBS, 0.0211 µM | 110 | 101 | 98.4
RPMI 5 mM glucose + 10% dialyzed FBS, 0.0632 µM | 105 | 113 | 117
RPMI 5 mM glucose + 10% dialyzed FBS, 0.19 µM | 103 | 111 | 92
RPMI 5 mM glucose + 10% dialyzed FBS, 0.569 µM | 113 | 116 | 105
RPMI 5 mM glucose + 10% dialyzed FBS, 1.71 µM | 68.6 | 110 | 71.8
RPMI 5 mM glucose + 10% dialyzed FBS, 5.12 µM | 20.8 | 103 | 93.2
RPMI 5 mM glucose + 10% dialyzed FBS, 15.4 µM | 19.6 | 79.9 | 85.7
RPMI 5 mM glucose + 10% dialyzed FBS, 46.1 µM | 18.9 | 62 | 62.4

AUC of viability dose-response curve
Conditions | NOMO1 [6] | P12-Ichikawa [4] | SEM cells [5]
HPLM + 10% dialyzed FBS | 365 | 419 | 388
RPMI 5 mM glucose + 10% FBS | 339 | 425 | 434
RPMI 5 mM glucose + 10% dialyzed FBS | 362 | 452 | 425

COc1cc2c(Nc3ccc(Cl)c(Cl)c3F)ncnc2cc1OC[C@@H]1C[C@@H]2CN(C)C[C@@H]2C1
cell viability [%]
Conditions | NOMO1 [3] | P12-Ichikawa [1] | SEM cells [2]
HPLM + 10% dialyzed FBS, 0.000781 µM | 109 | 105 | 105
HPLM + 10% dialyzed FBS, 0.00234 µM | 113 | 115 | 118
HPLM + 10% dialyzed FBS, 0.00702 µM | 116 | 118 | 121
HPLM + 10% dialyzed FBS, 0.0211 µM | 119 | 126 | 120
HPLM + 10% dialyzed FBS, 0.0632 µM | 115 | 119 | 98.8
HPLM + 10% dialyzed FBS, 0.19 µM | 88.4 | 111 | 113
HPLM + 10% dialyzed FBS, 0.569 µM | 81.2 | 109 | 100
HPLM + 10% dialyzed FBS, 1.71 µM | 73 | 83.2 | 93.3
HPLM + 10% dialyzed FBS, 5.12 µM | 50.7 | 71.1 | 56
HPLM + 10% dialyzed FBS, 15.4 µM | 53.4 | 49.5 | 47
HPLM + 10% dialyzed FBS, 46.1 µM | 20.7 | 10.1 | 10.1
RPMI 5 mM glucose + 10% FBS, 0.000781 µM | 114 | – | 98
RPMI 5 mM glucose + 10% FBS, 0.00234 µM | 121 | – | 117
RPMI 5 mM glucose + 10% FBS, 0.00702 µM | 131 | – | 121
RPMI 5 mM glucose + 10% FBS, 0.0211 µM | 130 | – | 144
RPMI 5 mM glucose + 10% FBS, 0.0632 µM | 127 | – | 118
RPMI 5 mM glucose + 10% FBS, 0.19 µM | 126 | – | 118
RPMI 5 mM glucose + 10% FBS, 0.569 µM | 119 | – | 101
RPMI 5 mM glucose + 10% FBS, 1.71 µM | 117 | – | 64.2
RPMI 5 mM glucose + 10% FBS, 5.12 µM | 87.9 | – | 44.4
RPMI 5 mM glucose + 10% FBS, 15.4 µM | 101 | – | 48
RPMI 5 mM glucose + 10% FBS, 46.1 µM | 22.5 | – | 5.51
RPMI 5 mM glucose + 10% dialyzed FBS, 0.000781 µM | 101 | – | 112
RPMI 5 mM glucose + 10% dialyzed FBS, 0.00234 µM | 124 | – | 109
RPMI 5 mM glucose + 10% dialyzed FBS, 0.00702 µM | 125 | – | 133
RPMI 5 mM glucose + 10% dialyzed FBS, 0.0211 µM | 118 | – | 129
RPMI 5 mM glucose + 10% dialyzed FBS, 0.0632 µM | 124 | – | 119
RPMI 5 mM glucose + 10% dialyzed FBS, 0.19 µM | 123 | – | 124
RPMI 5 mM glucose + 10% dialyzed FBS, 0.569 µM | 112 | – | 110
RPMI 5 mM glucose + 10% dialyzed FBS, 1.71 µM | 98.3 | – | 75.8
RPMI 5 mM glucose + 10% dialyzed FBS, 5.12 µM | 79.1 | – | 67
RPMI 5 mM glucose + 10% dialyzed FBS, 15.4 µM | 83.9 | – | 55.7
RPMI 5 mM glucose + 10% dialyzed FBS, 46.1 µM | 24.3 | – | 6.25

AUC of viability dose-response curve
Conditions | NOMO1 [6] | P12-Ichikawa [4] | SEM cells [5]
HPLM + 10% dialyzed FBS | 355 | 388 | 383
RPMI 5 mM glucose + 10% FBS | 437 | 388 | 358
RPMI 5 mM glucose + 10% dialyzed FBS | 418 | 401 | 379

COc1cc(O)c2c(c1)C1OC1C[C@H](O)[C@H](O)C(=O)/C=C\C[C@H](C)OC2=O (some centres not stated)
cell viability [%]
Conditions | NOMO1 [3] | P12-Ichikawa [1] | SEM cells [2]
HPLM + 10% dialyzed FBS, 0.000781 µM | 92.7 | 99.6 | 95.5
HPLM + 10% dialyzed FBS, 0.00234 µM | 118 | 112 | 93.1
HPLM + 10% dialyzed FBS, 0.00702 µM | 104 | 114 | 111
HPLM + 10% dialyzed FBS, 0.0211 µM | 111 | 110 | 108
HPLM + 10% dialyzed FBS, 0.0632 µM | 126 | 110 | 125
HPLM + 10% dialyzed FBS, 0.19 µM | 120 | 120 | 125
HPLM + 10% dialyzed FBS, 0.569 µM | 122 | 112 | 101
HPLM + 10% dialyzed FBS, 1.71 µM | 125 | 112 | 114
HPLM + 10% dialyzed FBS, 5.12 µM | 108 | 112 | 55.5
HPLM + 10% dialyzed FBS, 15.4 µM | 31.3 | 81.5 | 31.4
HPLM + 10% dialyzed FBS, 46.1 µM | 12.5 | 11.3 | 7.96
RPMI 5 mM glucose + 10% FBS, 0.000781 µM | 109 | 113 | 101
RPMI 5 mM glucose + 10% FBS, 0.00234 µM | 99.9 | 112 | 103
RPMI 5 mM glucose + 10% FBS, 0.00702 µM | 99 | 118 | 108
RPMI 5 mM glucose + 10% FBS, 0.0211 µM | 120 | 110 | 86.9
RPMI 5 mM glucose + 10% FBS, 0.0632 µM | 105 | 115 | 114
RPMI 5 mM glucose + 10% FBS, 0.19 µM | 96.7 | 114 | 108
RPMI 5 mM glucose + 10% FBS, 0.569 µM | 121 | 116 | 117
RPMI 5 mM glucose + 10% FBS, 1.71 µM | 103 | 125 | 101
RPMI 5 mM glucose + 10% FBS, 5.12 µM | 97.8 | 117 | 58
RPMI 5 mM glucose + 10% FBS, 15.4 µM | 50.4 | 80.5 | 30.7
RPMI 5 mM glucose + 10% FBS, 46.1 µM | 13.7 | 13.5 | 4.26
RPMI 5 mM glucose + 10% dialyzed FBS, 0.000781 µM | 93.5 | 96.5 | 101
RPMI 5 mM glucose + 10% dialyzed FBS, 0.00234 µM | 98 | 117 | 119
RPMI 5 mM glucose + 10% dialyzed FBS, 0.00702 µM | 105 | 116 | 117
RPMI 5 mM glucose + 10% dialyzed FBS, 0.0211 µM | 109 | 118 | 127
RPMI 5 mM glucose + 10% dialyzed FBS, 0.0632 µM | 110 | 114 | 109
RPMI 5 mM glucose + 10% dialyzed FBS, 0.19 µM | 114 | 135 | 121
RPMI 5 mM glucose + 10% dialyzed FBS, 0.569 µM | 113 | 124 | 102
RPMI 5 mM glucose + 10% dialyzed FBS, 1.71 µM | 100 | 123 | 110
RPMI 5 mM glucose + 10% dialyzed FBS, 5.12 µM | 94.7 | 132 | 47.6
RPMI 5 mM glucose + 10% dialyzed FBS, 15.4 µM | 50.7 | 85.1 | 24.4
RPMI 5 mM glucose + 10% dialyzed FBS, 46.1 µM | 17.5 | 14.3 | 5.3

AUC of viability dose-response curve
Conditions | NOMO1 [6] | P12-Ichikawa [4] | SEM cells [5]
HPLM + 10% dialyzed FBS | 418 | 443 | 394
RPMI 5 mM glucose + 10% FBS | 427 | 441 | 394
RPMI 5 mM glucose + 10% dialyzed FBS | 427 | 442 | 384
